# Legend:
# [1] = target: T1, hSSTR3 (Homo sapiens, UniProt P32745); experiment: Radioligand binding to human SSTR3; settings: from binding IC50
# T1 construct: expressed in transfected cells; host or cells: CHO-K1 (membranes)
# Method: Data were analyzed with XLfit (IDBS) software (version 5.3.1.3) using nonlinear regression applied to a sigmoidal dose–response model. Agonist activity of test compounds is expressed as a percentage of the activity of the reference agonist at its EC100 concentration.
# After 60 min at 25°C in a water bath, samples were ﬁltered over GF/B ﬁlters (Perkin
# Elmer, 6005177) presoaked in 0.5% PEI for 2h at RT) with a Filtermate Harvester (Perkin
# Elmer ). Filters were washed 6 times with 0.5 ml of ice-cold ﬁltration buﬀer, incubated 15
# min. on an orbital shaker with 50 µl of Microscint 20 (Packard) and counted for
# radioactivity with a TopCountTM or MicroBetaTM for 1 min/well.
# Dose-response curve were performed for each SSTR (agonist range 10-11 – 3x10-7 M),
# Each point was performed in duplicate2,3
# Dose-response data from test compounds were analysed with XLﬁt (IDBS) software
# using nonlinear regression applied to a sigmoidal dose-response model.
# Agonist activity of test compounds is expressed as a percentage of the activity of the
# reference agonist at its EC100 concentration.
# [2] = tested on: HA-SSTR3; experiment: SSTR3 phosphorylation, Western blot with phosphosite-specific antibodies, HEK293-transfected; assay type: cell-based, human; parameters: key: + = very low activity; ++ = low activity; +++ = high activity; ++++ = very high activity; settings: HEK293 stably expressing HA-SSTR3, agonist 5 min 37 °C
# Method: Western blot analysis was performed as previously described.
# Next, the activation of human SSTRs induced by SSAs was tested by Western blot using phosphosite-specific antibodies directed against the following residues: S341/pS343 for SSTR2; S337/T341 for SSTR3; T333 for SSTR5 [31].
# 4.1. Western blot analysis
# Western blot analysis was performed as previously described.7–9 Brieﬂy, HEK293 cells stably expressing the human somatostatin receptors were seeded onto poly-L-lysine-coated 60 mm dishes and grown to 90 % confluency. […]
# PierceTM HA epitope tag antibody beads (Thermo Scientific, Rockford, USA) were used to enrich HA-tagged somatostatin receptors or wheat germ lectin-agarose beads for no-tagged somatostatin receptors. To elute proteins from the beads, the samples were incubated in SDS sample buffer for 20 min at 60°C. Supernatants were separated from the beads, loaded on 8% SDS polyacrylamide gels and immunoblotted onto nitrocellulose membranes afterwards. After blocking, membranes were incubated with phosphorylation state-speciﬁc somatostatin receptor antibodies: pS337/pT341-SST3 (7TM0357A), […]
# Antibodies GmbH, Jena, Germany) at a dilution of 1:1000 at 4°C overnight. Membranes were incubated in HRP-linked secondary antibody for 2 hours, followed by detection using a chemiluminescence system (90 mM p-coumaric-acid, 250 mM luminol, 30% […]
# according to the manufacturer’s instructions.
# [3] = tested on: κ (KOP); experiment: Single-dose binding assay on κ opioid receptor; settings: 10^−5 M
# [4] = tested on: HA-SSTR3; experiment: SSTR3 internalization in HEK293 cells, confocal microscopy; assay type: cell-based, human; settings: 1 µM agonist, 30 min 37 °C
# Method: (§1) HEK293 cells obtained from DSMZ (Braunschweig, Germany) were transfected with plasmid encoding […] HA-tagged SSTR2, SSTR3 or SSTR5 receptors.
# (§2) HEK293 cells stably expressing HA-tagged hSSTR cultures were preincubated with anti-HA antibody for 2 h at 4 °C and then exposed to 1 µM agonist for 30 min at 37 °C before fixing and further labeling with Alexa488-conjugated secondary antibody. After mounting with Roti®-MountFluorCare DAPI, cultures were examined using a Zeiss LSM510 META laser scanning confocal microscope (Zeiss, Jena, Germany) (see Supplementary Materials for details).
# (§3) GH produced by primary cultures was tested by ELISA assay using Rat Growth Hormone Biotrak Enzyme immunoassay Mouse/Rat Growth ELISA (DSL-10-72100) or Rat/Mouse Growth Hormone ELISA (Millipore EZRMGH-45K) diluting supernatants 1:20, according to manufacturer’s instructions. […]
# (§4) U2OS recombinant cell lines were obtained from Innoprot (Derio, Spain). […] Nuclei were stained using DAPI (2 μg/ml) and the ﬂuorescence was measured using a BD Pathway 855 High-Content Bioimager from Becton Dickinson. The receptor internalization was calculated using AttoVision Software. […]
# (§5) Agonist activity of test compounds was calculated relatively to positive control
# [5] = tested on: HA-tagged SSTR5; experiment: SSTR5 internalization in HEK293 cells, confocal microscopy; assay type: cell-based, human; settings: 1 µM agonist, 30 min 37 °C
# Method: as §1, §2, §3, §4, §5
# [6] = tested on: HA-SSTR2; experiment: SSTR2 internalization in HEK293 cells, confocal microscopy; assay type: cell-based, human; settings: 1 µM agonist, 30 min 37 °C
# Method: as §1, §2, §3, §4, §5
# [7] = tested on: SSTR3-tGFP; experiment: Receptor internalization in U2OS-transfected cells (SSTR3-tGFP); assay type: cell-based, human; settings: 3 h, high-content imaging, n = 3, method: percentage of activity relative to SST28 10^−6 M
# Method: Compounds were tested at five concentrations (10^−5, 10^−6, 10^−7, 10^−8, 10^−9 M) in comparison to untreated cells.
# SST agonists were added to U2OS recombinant cell lines in OptiMeM medium (Life technologies 51985-034, Monza, Italy) for 3 h (SSTR2, SSTR3) or 7 h (SSTR5) (n = 3). After formaldehyde fixation, nuclei were stained using DAPI (2 µg/mL), and the fluorescence was measured with BD Pathway 855 High-Content Bioimager from Becton Dickinson. The receptor internalization was calculated using AttoVision 1.6 Software. Approximately 500 cells per field were analyzed. […]
# (Invitrogen, Carlsbad, CA). Stable transfectants were selected in the presence of 500 µg/ml G-418. […]
# % picric acid in phosphate buﬀer (pH 6.9) for 30 minutes at room temperature (RT). […]
# 3.2. U2OS human cell lines transfected with human receptors (SSTR2-tGFP, SSTR3-tGFP,
# Compounds were tested at ﬁve d iﬀerent concentrations (10-5, 10-6, 10-7, 10-8, 10^-9 M) in comparison to untreated cells.
# as §4, §5
# [8] = at high doses; ref manuscript in preparation; cited from earlier work
# Description: One important aspect relates to safety margins. Hyperglycemia is a common side effect of SSTR panagonists such as Pasireotide. […] What remains to be ascertained clinically is whether the higher agonistic activity on SSTR3 may allow us to define a dose at which full receptor engagement is observed in the absence of significant hyperglycemia.
# [9] = tested on: δ (DOP) (h); experiment: Single-dose binding assay on δ opioid receptor; parameters: species or system human; settings: 10^−5 M
# T1 sequence (P32745 whole entry): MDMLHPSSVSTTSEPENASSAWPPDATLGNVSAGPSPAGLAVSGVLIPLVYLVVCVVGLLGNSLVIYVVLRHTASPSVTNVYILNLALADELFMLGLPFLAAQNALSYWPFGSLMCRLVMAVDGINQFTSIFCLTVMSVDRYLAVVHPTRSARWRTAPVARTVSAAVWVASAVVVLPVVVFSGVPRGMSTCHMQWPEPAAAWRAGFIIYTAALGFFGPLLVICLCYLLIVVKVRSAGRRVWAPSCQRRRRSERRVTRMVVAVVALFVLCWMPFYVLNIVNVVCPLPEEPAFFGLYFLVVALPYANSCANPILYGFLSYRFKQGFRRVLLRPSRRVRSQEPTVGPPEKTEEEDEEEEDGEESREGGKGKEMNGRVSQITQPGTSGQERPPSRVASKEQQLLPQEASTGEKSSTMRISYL
smiles,measurement,setting,value
"COc1cc2cccc(OC)c2cc1C[C@H]1NC(=O)[C@H](Cc2ccc(O)cc2)NC(=O)[C@@H]2C[C@@H](OC(=O)NCCN)CN2C(=O)[C@H](Cc2ccccc2)NC(=O)[C@H](Cc2ccc(OCc3ccccc3)cc2)NC(=O)[C@H](CCCCN)NC1=O [ITF2984, Cyclo[Tyr(Bn)-Phe-Pro(4-OCONH(CH2)2NH2)-Tyr-3,8-diMeONal-Lys]]",improved affinity for SSTR3 compared to Octreotide or Pasireotide,[1],10 fold
same,Phosphorylation SSTR sites (HEK293-transfected): SSTR3—PS337/T341,[2],++++
same,Phosphorylation SSTR sites (HEK293-transfected): SSTR3—PT438,[2],++++
same,Percentage of inhibition of opioid receptor κ (KOP) (agonist),[3],97%
same,internalization of SSTR3 in transfected HEK293 cells,[4],strong internalization
same,internalization of SSTR5 in transfected HEK293 cells,[5],partial internalization
same,internalization of SSTR2 in transfected HEK293 cells,[6],partial internalization
same,"Receptor internalization in U2OS-transfected cells, SSTR3, at 10^−5 M",[7]; 10^−5 M,61.1
same,"Receptor internalization in U2OS-transfected cells, SSTR3, at 10^−6 M (value in brackets)",[7]; 10^−6 M,62.5
same,glycemia in clinical studies,[8],increased glycemia
same,Percentage of inhibition of opioid receptor δ (DOP) (h) (agonist),[9],79%
